Common to all, as to assay type: biochemical
For one assay, the target named is T1, Aurora B kinase (Homo sapiens, UniProt Q96GD4).
T1 construct: purchased Cell signaling
Nature of the assay: Aurora B kinase assay ([γ-33P]ATP, CHOCKtide substrate). As to conditions: 1.0 μM test compound. Put shortly:
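Radiometric filter-binding format: 33P incorporation into CHOCKtide counted after acid stop and filtration. Reactions ran 30 min at 33 °C, Aurora A with 10 μM ATP, Aurora B with 40 μM ATP. IC50 taken as concentration giving half-maximal kinase inhibition.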

The target of the next assay is T2, PDGFR-β kinase (Homo sapiens, UniProt P09619).
T2 construct: recombinant N-terminal 6×His-tagged PDGFR-β kinase domain construct expressed by baculovirus; 6xHis (N); made in house
T2 sequence (P09619 600-962 limits assumed): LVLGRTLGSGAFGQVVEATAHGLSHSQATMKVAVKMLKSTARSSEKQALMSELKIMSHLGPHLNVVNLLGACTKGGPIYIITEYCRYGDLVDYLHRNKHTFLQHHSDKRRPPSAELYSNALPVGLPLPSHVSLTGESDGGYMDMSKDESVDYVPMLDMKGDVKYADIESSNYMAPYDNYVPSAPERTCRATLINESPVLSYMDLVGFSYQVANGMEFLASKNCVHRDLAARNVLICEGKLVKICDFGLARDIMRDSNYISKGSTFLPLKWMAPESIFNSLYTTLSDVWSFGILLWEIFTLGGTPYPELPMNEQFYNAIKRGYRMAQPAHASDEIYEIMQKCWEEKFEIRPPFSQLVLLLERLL
Nature of the assay: PDGFR-β kinase assay (33P incorporation into Poly(Glu-Tyr)). The note with it: 500 nM test compound. Put shortly:
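His-tagged PDGFR-β kinase domain (55 ng) with Poly(Glu-Tyr) 4:1, 30 μM ATP plus [33P]-γ-ATP, pH 7.0 MnCl2 buffer, and 500 nM compound for 30 min at 30° C. Filter-bound radioactivity counted; inhibition computed relative to DMSO control.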

The next assay deals with T3, Flt3 kinase (Homo sapiens, UniProt P36888).
T3 construct: recombinant N-terminal 6×His-tagged Flt3 kinase domain construct expressed from baculovirus; 6xHis (N); made in house
T3 sequence (P36888 610-943 limits assumed): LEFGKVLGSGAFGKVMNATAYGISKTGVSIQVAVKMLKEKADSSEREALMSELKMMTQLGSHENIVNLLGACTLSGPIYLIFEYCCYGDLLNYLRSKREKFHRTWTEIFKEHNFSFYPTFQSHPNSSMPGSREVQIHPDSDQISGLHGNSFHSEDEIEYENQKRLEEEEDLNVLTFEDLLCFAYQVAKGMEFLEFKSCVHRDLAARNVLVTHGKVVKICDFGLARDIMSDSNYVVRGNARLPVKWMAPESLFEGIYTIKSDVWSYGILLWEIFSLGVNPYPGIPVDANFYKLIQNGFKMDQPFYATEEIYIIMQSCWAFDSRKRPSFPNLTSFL
In words: Flt3 kinase assay (33P incorporation into Poly(Glu-Tyr)). The note with it: 100 nM test compound; read-out: Inhibition at 100 nM (%) Flt-3. The gist of the method:
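Baculovirus-expressed His-tagged Flt3 kinase domain (5 ng) with Poly(Glu-Tyr) 4:1 substrate, 100 μM ATP plus [33P]-γ-ATP, in MOPS pH 7.0 buffer, 30 min at 30 °C. Compound tested at a single 100 nM concentration; filter-bound radioactivity counted and percent inhibition calculated relative to DMSO control.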

The inhibition is the relative decrease from the control value, in per cent.

T1 sequence (Q96GD4 whole entry): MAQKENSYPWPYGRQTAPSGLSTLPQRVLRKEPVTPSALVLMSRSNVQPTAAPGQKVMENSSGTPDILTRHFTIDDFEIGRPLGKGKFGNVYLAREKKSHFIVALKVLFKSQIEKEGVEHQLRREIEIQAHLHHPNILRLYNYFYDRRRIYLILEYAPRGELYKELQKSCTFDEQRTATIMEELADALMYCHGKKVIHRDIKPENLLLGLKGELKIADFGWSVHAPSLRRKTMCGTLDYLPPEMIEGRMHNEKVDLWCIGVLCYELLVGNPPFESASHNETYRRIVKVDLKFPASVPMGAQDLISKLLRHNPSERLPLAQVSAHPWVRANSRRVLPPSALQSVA

Regarding `COc1ccc(C(=O)Nc2ccc3c(c2)/C(=C/c2[nH]c4c(c2CCC(=O)O)C(=O)CCC4)C(=O)N3)cc1` [DCB-70143, (Z)-3-(2-((5-(4-methoxybenzamido)-2-oxoindolin-3-ylidene)methyl)-4-oxo-4,5,6,7-tetrahydro-1H-indol-3-yl)propanoic acid], on Aurora B kinase, the inhibition at 1 µM was found to be 9.1%. Further, the inhibition at 0.5 µM against PDGFR-β kinase came out at 1%. Also, the inhibition at 0.1 µM at Flt3 kinase was 6%.
With `CN(c1cccc(Cl)c1)S(=O)(=O)c1ccc2c(c1)/C(=C/c1[nH]c3c(c1CCC(=O)O)C(=O)CCCC3)C(=O)N2` [DCB-70148, (Z)-3-(2-((5-(N-(3-chlorophenyl)-N-methylsulfamoyl)-2-oxoindolin-3-ylidene)methyl)-4-oxo-1,4,5,6,7,8-hexahydrocyclohepta[b]pyrrol-3-yl)propanoic acid], at Aurora B kinase, the inhibition at 1 µM worked out at 30.2%. In addition, the inhibition at 0.5 µM against PDGFR-β kinase is 16.1%. The inhibition at 0.1 µM on Flt3 kinase came to 9.7%.
Take `CCOC(=O)CCc1c(/C=C2\C(=O)Nc3ccc(NC(=O)c4ccc(OC)cc4)cc32)[nH]c2c1C(=O)CCC2` [DCB-70141, (Z)-ethyl 3-(2-((5-(4-methoxybenzamido)-2-oxoindolin-3-ylidene)methyl)-4-oxo-4,5,6,7-tetrahydro-1H-indol-3-yl)propanoate]: the inhibition at 1 µM on Aurora B kinase was -23%. Further, at PDGFR-β kinase, the inhibition at 0.5 µM amounted to 1.4%. The inhibition at 0.1 µM at Flt3 kinase stood at 10.7%.
On to `O=C(O)CCc1c(/C=C2\C(=O)Nc3ccc(S(=O)(=O)Nc4ccc(F)c(Cl)c4)cc32)[nH]c2c1C(=O)CCCC2` [DCB-70149, (Z)-3-(2-((5-(N-(3-chloro-4-fluorophenyl)sulfamoyl)-2-oxoindolin-3-ylidene)methyl)-4-oxo-1,4,5,6,7,8-hexahydrocyclohepta[b]pyrrol-3-yl)propanoic acid], for which the inhibition at 1 µM at Aurora B kinase amounted to 18.7%. Besides, the inhibition at 0.5 µM against PDGFR-β kinase came out at 10.8%. In addition, the inhibition at 0.1 µM on Flt3 kinase is 7.3%.
